{"source": "paper PMC11680164", "about": "(Viruses, 2024)", "key": {"[1]": {"assay": "Pharmacokinetics (plasma and lung) after single oral dose in mice", "type": "in vivo, Swiss Webster mice", "settings": "60 mg/kg p.o. single dose"}, "[2]": {"settings": "cited from earlier work"}, "[3]": {"settings": "Swiss Webster, mouse, po, plasma"}}}
{"compound": "COC(=O)N[C@H](C(=O)N1CCC[C@H]1c1nc(-c2ccc(-c3ccc(-c4c[nH]c([C@@H]5CCCN5C(=O)[C@@H](NC(=O)OC)C(C)C)n4)cc3)cc2)c[nH]1)C(C)C", "note": "[daclatasvir]", "values": [{"measurement": "AUC in plasma relative to lungs", "setting": "[1]", "value": "~5.9", "unit": "fold"}, {"measurement": "Cmax", "setting": "[1]; Swiss Webster, mouse, po, lung", "value": 6190, "unit": "ng/g"}, {"measurement": "Tmax", "setting": "[1]; Swiss Webster, mouse, po, lung", "value": 0.67, "unit": "h"}, {"measurement": "half-life", "setting": "[1]; Swiss Webster, mouse, po, lung", "value": 14.7, "unit": "h"}, {"measurement": "AUC(0-inf)", "setting": "[1]; [3]", "value": 103, "unit": "µg·h/mL"}, {"measurement": "AUC(0-t)", "setting": "[1]; [3]", "value": 101, "unit": "µg·h/mL"}, {"measurement": "Cmax", "setting": "[1]; [3]", "value": 22200, "unit": "ng/mL"}, {"measurement": "Tmax", "setting": "[1]; [3]", "value": 1, "unit": "h"}, {"measurement": "half-life", "setting": "[1]; [3]", "value": 2.25, "unit": "h"}, {"measurement": "AUClast", "setting": "[1]; lung", "value": "16,932 h.ng/g"}, {"measurement": "AUC∞", "setting": "[1]; lung", "value": "19,123 h.ng/g"}, {"measurement": "Ct (last concentration observed above the limit of quantification)", "setting": "[1]; lung", "value": 103.46, "unit": "ng/g"}, {"measurement": "Tlast", "setting": "[1]; lung", "value": 16.00, "unit": "h"}, {"measurement": "λ (apparent elimination constant)", "setting": "[1]; lung", "value": 0.0472, "unit": "h*^−1"}, {"measurement": "Ct (last concentration observed above the limit of quantification)", "setting": "[1]; plasma", "value": 353.84, "unit": "ng/mL"}, {"measurement": "Tlast", "setting": "[1]; plasma", "value": 16.00, "unit": "h"}, {"measurement": "λ (apparent elimination constant)", "setting": "[1]; plasma", "value": 0.308, "unit": "h*^−1"}, {"measurement": "no-observable-effect level (NOEL)", "setting": "[2]; nonhuman primates treated daily for 4–9 months", "value": 15, "unit": "mg/kg"}, {"measurement": "tolerated dose", "setting": "[2]; nonhuman primates", "value": 15, "unit": "mg/kg"}]}
